Assay results from US20260265691A1, “METHODS TO IMPROVE THE PERSISTENCE OF DOUBLE NEGATIVE T CELLS” (priority 2022, published 2026).

Columns and labels:
DNTs [1] = experiment: CD69 expression on ex vivo expanded DNTs; format: cell-based, human; conditions: 0, 1 and 5 μM Ide; day 7, 10 and 17
Description: Frequency of CD69 expression from day 7, 10 and 17 ex vivo expanded DNTs in 0, 1 and 5 μM of de.

DNTs [2] = experiment: Exhaustion marker expression on DNTs (flow cytometry); format: cell-based, human
Text: FIGS. 7A-7G. […] Representative flow plot is shown (Left). The numbers represent the MFI value (Right). […] Horizontal bars represent the mean relative MFI and error bars show SEM. (FIG. 7C) Expression of exhaustion associated transcription factor gene, TOX, relative to the expression of housekeeping gene, HPRT, determined by qPCR. Each paired symbol represents DNTs from one individual. […] Subsequently, cells were intracellularly stained with anti-TNFα and anti-IFNγ antibodies, and the expression levels were determined by flow cytometry. Representative flow plot is shown (Left). The numbers represent the frequency in each gate. […] The result shown is a summary of three experiments. (FIG. 7E) Frequency of viable ctrl-DNTs and Ide-DNTs on day 17 of expansion. The cell viability was determined with Annexin V and 7-AAD staining using flow cytometry. […] (FIG. 7F) Viability of ctrl-DNTs and Ide-DNTs after co-culture with primary AML cells from 7 different patients. […]
The following antibodies were used in this study: CD4-FITC or -APCcy7, CD56-PE, CD3-PEcy7 or -Alexa Flour700, CD8-APC or -APCcy7, CD45RA-FITC, CD95-APC, CD62L-PEcy7, CTLA4-PE, LAG3-PEcy7, TIM3-APC, CD45-FITC or -APCcy7, CD34-PE, CD33-APC, AnnexinV-Pacific Blue or -FITC, 7AAD, IFNy-PE, TNFα-APC and DAPI. […] Data were obtained using Attune NXT flow Cytometer (ThermoFisher) and analyzed with Flowjo software (Tree Star, Inc.).

DNTs [3] = experiment: Memory status of ex vivo expanded DNTs (CD45RA, CD62L flow cytometry); format: cell-based, human; conditions: end of expansion (day 17)
Description: (FIG. 6A) Representative flow plots showing memory status. […] Tnaive/SCM=CD45RA^+CD62L^+; TCM=CD45RA^−CD62L^+; TEM=CD45RA^−CD62L; Teffector=CD45RA^+CD62L^−. (FIG. 6B) Frequency of DNTs in early memory subset TCM/SCM (CD45RA^+/CD62L^+ and CD45RA^−CD62L^+; left), TEM (CD45RA^−CD62L^−; middle) and TEFF (CD45RA^+CD62L^−; right) from day 7 to day 17 of ex vivo DNT expansion culture. […] Each dot represents DNTs from one donor. The cell number is normalized to day 0 DNT number. […] The expression shown is relative to the expression of housekeeping gene, HPRT. Each paired symbols represent DNTs from one donor. […] Expansion fold relative to the number of DNTs at the start of co-culture was determined after 2 days and 8 days (Left). Absolute number of viable DNTs from each treatment group after co-culture with OCI-AML3 (Right). […] (FIG. 6F) Memory status of DNTs 8 days post co-culture with OCI-AML3 determined by flow-cytometry. […]

DNTs [4] = experiment: DNT viability (Annexin V, 7-AAD flow cytometry); format: cell-based, human; conditions: 5 healthy donors, day 17
Description: The result shown is a summary of three experiments. […] The cell viability was determined with Annexin V and 7-AAD staining using flow cytometry. […] Subsequently, the viability of DNTs (gated on CD45^high CD3^+CD33/CD34^−) were determined using flow cytometry. […] Each paired symbol represents DNTs from one donor.
and viability of effector cells was calculated by 100-% AnnexinV^+ in cultures of DNTs with AML.

[5] = autoimmune toxicities, infection, diarrhea, skin problems; cited from earlier work
DNTs [6] = experiment: Ex vivo DNT expansion in increasing concentrations of Ide; format: cell-based, human
Description: DNT was obtained and expanded as previously reported in the presence or absence of Ide (Selleckchem). Briefly, blood from healthy donor was collected in sodium heparin containing vacutainers (Becton, Dickinson and Company). Then, CD4^+ and CD8^+ T cells were depleted from healthy donor-derived PBMCs by incubating whole blood with RosetteSep human CD4 and CD8 depletion cocktail (StemCell Technologies) followed by density gradient centrifugation to collect CD4 and CD8 depleted buffy coats.

conventional T cells = conditions: Kagoya et al. 2016; cited from earlier work
DNTs [7] = experiment: Effect of JQ1 on memory status of DNTs (flow cytometry of CD27, CD62L, CD45RA); format: cell-based, human; conditions: JQ1 0.075, 0.15, 0.30 μM for 20 days; day 14, 17 and 20 of DNT expansion
Text: JQ1 was given to the culture on day 0, 3, 7, 10, 14, and 17.

Row | SMILES | CD69 expression (DNT activation signal) (DNTs [1]) | expression of inhibitory receptor Lag3 on DNTs compared to ctrl-DNTs (DNTs [2]) | expression of inhibitory receptor Tim3 on DNTs compared to ctrl-DNTs (DNTs [2]) | TCM/TSCM cell number, fold higher compared to ctrl-DNTs (DNTs [3]) [fold] | viability of DNTs after expansion (DNTs [4]) | adverse events associated with Ide-treatment [5] | DNT viability at the end of cell expansion cultures (DNTs [6]; 1 μM Ide) | cell yield at the end of expansion compared to vehicle control (DNTs [6]; 0.1-1.0 μM Ide) | DNT expansion (DNTs [6]; 3.0-10.0 μM of Ide) | inducing memory phenotype on conventional T cells (conventional T cells) | memory formation of DNTs across treatment groups (DNTs [7])
1 | CC[C@H](Nc1ncnc2[nH]cnc12)c1nc2cccc(F)c2c(=O)n1-c1ccccc1 [Ide, 5-fluoro-3-phenyl-2-[(1S)-1-(7H-purin-6-ylamino)propyl]quinazolin-4-one] | reduced levels of CD69 expression in a dose-dependent manner | reduced the expression | reduced the expression | 3.87±0.82 | significantly improved the viability | severe adverse events | highest DNT viability | improved cell yield | compromised | – | –
2 | Cc1sc2c(c1C)C(c1ccc(Cl)cc1)=N[C@@H](CC(=O)OC(C)(C)C)c1nnc(C)n1-2 [JQ1] | – | – | – | – | – | – | – | – | – | top hit amongst 31 chemicals tested | no biologically meaningful differences
